Results published in patent publication US20240246942A1, “KINASE INHIBITORS FOR THE TREATMENT OF NEURODEGENERATIVE DISEASES” (priority 2020, published 2024).

Tests used:
Experiment in all cases: biochemical
[1] = target: T1, panel of 374 wild-type kinases (Homo sapiens, UniProt O96013); conditions: read-out: % Enzyme Activity (relative to DMSO controls), kinase PAK4
T1 construct: purchased Reaction Biology Corporation

[2] = target: T2, panel of 374 wild-type kinases (Homo sapiens, UniProt P11309); conditions: read-out: % Enzyme Activity (relative to DMSO controls), kinase PIM1
T2 construct: purchased Reaction Biology Corporation
T2 sequence (P11309 whole entry): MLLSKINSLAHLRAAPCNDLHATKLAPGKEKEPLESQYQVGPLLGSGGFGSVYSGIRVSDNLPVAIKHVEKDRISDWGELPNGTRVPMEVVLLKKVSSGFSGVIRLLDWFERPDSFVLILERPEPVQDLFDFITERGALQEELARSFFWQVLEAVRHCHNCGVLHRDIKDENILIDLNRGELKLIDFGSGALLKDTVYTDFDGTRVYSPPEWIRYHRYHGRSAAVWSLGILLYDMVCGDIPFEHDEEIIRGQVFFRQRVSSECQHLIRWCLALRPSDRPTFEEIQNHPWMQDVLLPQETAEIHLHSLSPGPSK

[3] = target: T3, panel of 374 wild-type kinases (Homo sapiens, UniProt P17612); conditions: read-out: % Enzyme Activity (relative to DMSO controls), kinase PKA
T3 construct: purchased Reaction Biology Corporation

[4] = target: T4, panel of 374 wild-type kinases (Homo sapiens, UniProt P31751); conditions: read-out: % Enzyme Activity (relative to DMSO controls), AKT2
T4 construct: purchased Reaction Biology Corporation
T4 sequence (P31751 whole entry): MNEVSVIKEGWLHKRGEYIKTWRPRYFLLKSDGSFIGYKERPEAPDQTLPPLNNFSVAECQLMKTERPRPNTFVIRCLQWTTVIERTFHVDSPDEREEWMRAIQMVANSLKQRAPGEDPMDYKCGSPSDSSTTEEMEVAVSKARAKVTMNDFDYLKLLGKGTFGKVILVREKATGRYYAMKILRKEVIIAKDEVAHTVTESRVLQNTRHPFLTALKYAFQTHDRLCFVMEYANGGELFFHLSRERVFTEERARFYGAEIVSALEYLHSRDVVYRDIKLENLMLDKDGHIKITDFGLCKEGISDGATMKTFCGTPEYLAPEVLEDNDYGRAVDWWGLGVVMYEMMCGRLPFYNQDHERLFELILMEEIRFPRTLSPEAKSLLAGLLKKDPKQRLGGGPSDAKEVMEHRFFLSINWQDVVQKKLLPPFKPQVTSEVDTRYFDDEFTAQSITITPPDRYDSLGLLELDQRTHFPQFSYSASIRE

[5] = target: T5, panel of 374 wild-type kinases (Homo sapiens, UniProt Q8IYT8); conditions: read-out: % Enzyme Activity (relative to DMSO controls), kinase ULK2
T5 construct: purchased Reaction Biology Corporation
T5 sequence (Q8IYT8 1-1036): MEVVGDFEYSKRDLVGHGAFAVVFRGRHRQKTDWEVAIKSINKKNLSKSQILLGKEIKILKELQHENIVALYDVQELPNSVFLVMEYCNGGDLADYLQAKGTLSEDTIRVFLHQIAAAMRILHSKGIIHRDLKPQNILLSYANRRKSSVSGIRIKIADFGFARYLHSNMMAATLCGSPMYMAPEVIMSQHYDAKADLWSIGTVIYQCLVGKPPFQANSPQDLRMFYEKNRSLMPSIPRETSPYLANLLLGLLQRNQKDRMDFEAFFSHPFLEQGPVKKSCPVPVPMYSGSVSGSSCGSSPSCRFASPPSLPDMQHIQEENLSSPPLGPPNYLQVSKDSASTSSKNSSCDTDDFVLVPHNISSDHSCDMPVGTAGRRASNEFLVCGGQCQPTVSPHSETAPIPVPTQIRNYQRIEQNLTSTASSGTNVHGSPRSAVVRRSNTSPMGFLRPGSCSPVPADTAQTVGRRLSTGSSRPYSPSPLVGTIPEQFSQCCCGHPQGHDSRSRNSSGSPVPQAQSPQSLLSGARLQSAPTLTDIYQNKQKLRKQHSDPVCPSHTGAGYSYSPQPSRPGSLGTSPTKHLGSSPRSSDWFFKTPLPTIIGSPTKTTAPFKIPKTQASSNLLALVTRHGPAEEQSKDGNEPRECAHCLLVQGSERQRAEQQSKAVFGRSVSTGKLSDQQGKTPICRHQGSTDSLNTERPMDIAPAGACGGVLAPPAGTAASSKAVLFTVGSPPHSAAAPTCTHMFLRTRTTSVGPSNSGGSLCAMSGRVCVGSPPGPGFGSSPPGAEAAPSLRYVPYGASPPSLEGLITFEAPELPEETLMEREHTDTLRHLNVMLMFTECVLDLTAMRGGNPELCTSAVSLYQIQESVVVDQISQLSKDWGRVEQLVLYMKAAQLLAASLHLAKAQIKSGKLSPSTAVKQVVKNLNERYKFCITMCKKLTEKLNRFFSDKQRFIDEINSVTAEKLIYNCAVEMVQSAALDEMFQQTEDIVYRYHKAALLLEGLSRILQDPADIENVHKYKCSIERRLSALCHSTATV

[6] = target: T6, panel of 374 wild-type kinases (Homo sapiens, UniProt Q99683); conditions: read-out: % Enzyme Activity (relative to DMSO controls), ASK1/MAP3K5
T6 construct: purchased Reaction Biology Corporation
T6 sequence (Q99683 1-1374): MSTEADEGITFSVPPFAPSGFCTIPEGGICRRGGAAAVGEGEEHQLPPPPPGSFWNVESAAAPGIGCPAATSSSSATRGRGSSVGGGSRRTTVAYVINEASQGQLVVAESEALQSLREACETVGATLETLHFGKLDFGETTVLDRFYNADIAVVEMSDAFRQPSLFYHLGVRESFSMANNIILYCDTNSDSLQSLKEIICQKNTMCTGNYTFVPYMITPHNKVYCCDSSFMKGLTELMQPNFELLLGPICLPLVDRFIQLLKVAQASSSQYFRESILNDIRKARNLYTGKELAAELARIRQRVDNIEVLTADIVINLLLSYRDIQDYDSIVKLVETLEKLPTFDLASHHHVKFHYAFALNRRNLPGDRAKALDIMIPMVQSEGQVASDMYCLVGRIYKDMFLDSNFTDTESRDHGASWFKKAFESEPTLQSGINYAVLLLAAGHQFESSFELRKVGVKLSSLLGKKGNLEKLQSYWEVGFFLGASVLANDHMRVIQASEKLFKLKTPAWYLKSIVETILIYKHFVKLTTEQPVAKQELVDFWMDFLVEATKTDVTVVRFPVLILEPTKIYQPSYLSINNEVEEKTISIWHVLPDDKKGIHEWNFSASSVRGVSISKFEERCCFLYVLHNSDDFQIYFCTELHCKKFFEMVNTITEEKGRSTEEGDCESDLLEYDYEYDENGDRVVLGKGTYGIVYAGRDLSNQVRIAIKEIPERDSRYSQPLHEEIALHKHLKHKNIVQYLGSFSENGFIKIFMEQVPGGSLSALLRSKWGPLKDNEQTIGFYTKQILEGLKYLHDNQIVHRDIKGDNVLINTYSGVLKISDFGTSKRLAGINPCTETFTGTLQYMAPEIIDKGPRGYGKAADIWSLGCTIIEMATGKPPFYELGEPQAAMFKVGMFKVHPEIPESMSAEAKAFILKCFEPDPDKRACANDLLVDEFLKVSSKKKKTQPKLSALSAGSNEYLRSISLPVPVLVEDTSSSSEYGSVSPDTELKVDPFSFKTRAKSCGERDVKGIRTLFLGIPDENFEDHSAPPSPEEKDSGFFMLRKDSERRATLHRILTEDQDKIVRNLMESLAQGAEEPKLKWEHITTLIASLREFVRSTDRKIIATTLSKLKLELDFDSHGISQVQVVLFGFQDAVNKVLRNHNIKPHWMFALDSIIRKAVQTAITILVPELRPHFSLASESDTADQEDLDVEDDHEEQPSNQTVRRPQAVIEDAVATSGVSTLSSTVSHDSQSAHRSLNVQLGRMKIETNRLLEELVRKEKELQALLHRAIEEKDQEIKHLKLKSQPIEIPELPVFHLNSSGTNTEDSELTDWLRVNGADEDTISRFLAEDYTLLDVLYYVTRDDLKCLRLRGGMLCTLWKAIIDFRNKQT

[7] = target: T7, panel of 374 wild-type kinases (Homo sapiens, UniProt Q9UPE1); conditions: read-out: % Enzyme Activity (relative to DMSO controls), MSSK1/STK23
T7 construct: purchased Reaction Biology Corporation
T7 sequence (Q9UPE1 whole entry): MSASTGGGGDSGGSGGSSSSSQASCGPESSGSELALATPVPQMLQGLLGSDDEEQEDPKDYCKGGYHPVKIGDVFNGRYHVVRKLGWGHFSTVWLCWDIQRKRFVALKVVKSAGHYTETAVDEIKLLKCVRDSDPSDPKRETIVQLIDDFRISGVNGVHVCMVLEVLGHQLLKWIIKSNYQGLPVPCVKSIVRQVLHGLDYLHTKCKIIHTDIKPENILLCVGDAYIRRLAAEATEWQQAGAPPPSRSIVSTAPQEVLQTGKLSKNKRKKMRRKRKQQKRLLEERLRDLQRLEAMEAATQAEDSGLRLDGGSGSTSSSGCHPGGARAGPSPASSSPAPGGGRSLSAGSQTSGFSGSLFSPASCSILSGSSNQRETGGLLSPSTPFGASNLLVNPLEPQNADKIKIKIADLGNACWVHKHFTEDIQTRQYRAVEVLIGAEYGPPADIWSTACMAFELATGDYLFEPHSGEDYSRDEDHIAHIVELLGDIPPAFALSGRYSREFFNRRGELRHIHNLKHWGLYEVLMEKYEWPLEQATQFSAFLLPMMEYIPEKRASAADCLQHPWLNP

T1 sequence (O96013 whole entry): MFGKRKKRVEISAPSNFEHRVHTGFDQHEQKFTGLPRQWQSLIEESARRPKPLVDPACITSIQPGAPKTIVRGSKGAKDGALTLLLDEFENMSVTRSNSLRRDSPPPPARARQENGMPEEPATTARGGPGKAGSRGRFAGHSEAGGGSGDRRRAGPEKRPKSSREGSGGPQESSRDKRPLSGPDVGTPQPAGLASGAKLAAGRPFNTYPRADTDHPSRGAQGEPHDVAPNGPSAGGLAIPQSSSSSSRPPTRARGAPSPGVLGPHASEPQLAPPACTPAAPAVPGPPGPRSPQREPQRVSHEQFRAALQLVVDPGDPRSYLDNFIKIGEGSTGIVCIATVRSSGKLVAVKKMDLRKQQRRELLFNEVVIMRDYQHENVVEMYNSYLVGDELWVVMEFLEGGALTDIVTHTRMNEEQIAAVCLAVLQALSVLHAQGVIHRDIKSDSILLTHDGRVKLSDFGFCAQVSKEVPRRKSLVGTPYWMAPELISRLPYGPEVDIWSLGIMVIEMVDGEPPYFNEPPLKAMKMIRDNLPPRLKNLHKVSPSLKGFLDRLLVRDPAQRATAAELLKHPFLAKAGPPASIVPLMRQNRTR

SMILES: Cc1sc(C(=O)NC2COC2)cc1-n1cc(NC(=O)Nc2c(F)cccc2Cl)cn1 [Compound 27, 4-(4-(3-(2-chloro-6-fluorophenyl)ureido)-1H-pyrazol-1-yl)-5-methyl-N-(oxetan-3-yl)thiophene-2-carboxamide]
- remaining activity at 10 µM ([1]; 10 uM): 106%
- remaining activity at 10 µM ([2]; 10 uM): 95.1%
- remaining activity at 10 µM ([3]; 10 uM): 94.5%
- remaining activity at 10 µM ([4]; 10 uM): 89.8%
- remaining activity at 10 µM ([5]; 10 uM): 74.9%
- remaining activity at 10 µM ([6]; 10 uM): 94%
- remaining activity at 10 µM ([7]; 10 uM): 98.9%

SMILES: O=C(Nc1cnn(-c2csc(C(=O)NC3COC3)c2)c1)Nc1c(F)cccc1Cl [Compound 25, 4-(4-(3-(2-chloro-6-fluorophenyl)ureido)-1H-pyrazol-1-yl)-N-(oxetan-3-yl)thiophene-2-carboxamide]
- remaining activity at 5 µM [1]: 107%
- remaining activity at 5 µM [2]: 73.3%
- remaining activity at 5 µM [3]: 108%
- remaining activity at 5 µM [4]: 104%
- remaining activity at 5 µM [5]: 105%
- remaining activity at 5 µM [6]: 91.1%
- remaining activity at 5 µM [7]: 89.8%

SMILES: O=C(Nc1cnn(-c2csc(C(=O)NC3COC3)c2)c1)Nc1ccccc1Cl [Compound 17, 4-(4-(3-(2-chlorophenyl)ureido)-1H-pyrazol-1-yl)-N-(oxetan-3-yl)thiophene-2-carboxamide]
- remaining activity at 5 µM [1]: 98.9%
- remaining activity at 5 µM [2]: 64.6%
- remaining activity at 5 µM [3]: 99.8%
- remaining activity at 5 µM [4]: 89.5%
- remaining activity at 5 µM [5]: 196%
- remaining activity at 5 µM [6]: 91.2%
- remaining activity at 5 µM [7]: 91.9%
